The values that follow come from US4413007A, “Pesticidal symmetrical N-substituted bis-carbamoyloximino disulfide compounds” (priority 1978, dated 1983).

The structures appear in SMILES notation.

Holding throughout (format): in vivo
In assay [1] the test system is bean aphid (Aphis fabae Scop.). Nature of the assay: Bean Aphid Foliage Spray Test. The note with it: 500 ppm, 24 hour holding period. The arrangement: key: A: excellent control; B: partial control; C: no control. On the procedure:
(§1) Suspensions of the test compounds were prepared by dissolving one gram of compound in 50 milliliters of acetone in which had been dissolved 0.1 gram (10 percent of the weight of compound) of an alkylphenoxy polyethoxyethanol surfactant, as an emulsifying or dispersing agent. The resulting solution was mixed into 150 milliliters of water to give roughly 200 milliliters of a suspension containing the compound in finely divided form. The thus-prepared stock suspension contained 0.5 percent by weight of compound. The test concentrations in parts per million by weight employed in the tests described hereinbelow were obtained by appropriate dilutions of the stock suspension with water. The test procedures were as follows:
Adults and nymphal stages of the bean aphid (Aphis fabae Scop.) reared on potted dwarf nasturtium plants at 65°-70° F. and 50-70 percent relative humidity, constituted the test insects. For testing purposes, the number of aphids per pot was standardized to 100-150 by trimming plants containing excess aphids.
The test compounds were formulated by diluting the stock suspension with water to give a suspension containing 500 parts of test compound per million parts of final formulation.
The potted plants (one pot per compound tested) infested with 100-150 aphids, were placed on a revolving turntable and sprayed with 100-110 milliliters of test compound formulation by use of a DeVilbiss spray gun set at 40 psig. air pressure. This application, which tested 25 seconds, was sufficient to wet the plants to run-off. As a control, 100-110 milliliters of a water-acetone-emulsifier solution containing no test compound were also sprayed on infested plants. After spraying, the pots were placed on their sides on a sheet of white standard mimeograph paper which had been previously ruled to facilitate counting. Temperature and humidity in the test room during the 24 hour holding period were 65°-70° F. and 50-70 percent, respectively. Aphids which fell onto the paper and were unable to remain standing after being uprighted were considered dead. Aphids remaining on the plants were observed closely for movement and those which were unable to move the length of the body upon stimulation by prodding were considered dead. Percent mortality was recorded for various concentration levels.
(§2) In these tests the pesticidal activity of the compounds against aphid, mite, Southern Armyworm, Bean Beetle and house fly was rated as follows: […]

Assay [2] has as its system southern armyworm (Prodenia eridania, (Cram.)). In words: Southern Armyworm Leaf Spray Test. The arrangement: key: A: excellent control; B: partial control; C: no control. The note with it: 500 ppm, three days. On the procedure:
as §1
Larvae of the southern armyworm (Prodenia eridania, (Cram.)), reared on Tendergreen bean plants at a temperature of 80±5° F. and a relative humidity of 50±5 percent, constituted the test insects.
The test compounds were formulated by diluting the stock suspension with water to give a suspension containing 500 parts of test compound per million parts of final formulation. Potted Tendergreen bean plants of standard height and age were placed on a revolving turntable and sprayed with 100-110 milliliters of test compound formulation by use of a DeVilbiss spray gun set at 10 psig air pressure. This application, which tested 25 seconds, was sufficient to wet plants to run-off. As a control, 100-110 milliliters of a water-acetone-emulsifier solution containing no test compound were also sprayed on infested plants. When dry, the paired leaves were separated and each one was placed in a 9 centimeter Petri dish lined with moistened filter paper. Five randomly selected larvae were introduced into each dish and the dishes were closed. The closed dishes were labeled and held at 80°-85° F. for three days. Although the larvae could easily consume the whole leaf within twenty-four hours, no more food was added. Larvae which were unable to move the length of the body, even upon stimulation by prodding, were considered dead. Percent mortality was recorded for various concentration levels.
as §2

Assay [3] has as its system Mexican bean beetle (Epilachna varivestis, Muls.). Nature of the assay: Mexican Bean Beetle Leaf Spray Test. The arrangement: key: A: excellent control; B: partial control; C: no control. The following applies: 500 ppm, three days. The method, then: as §1
Fourth instar larvae of the Mexican bean beetle (Epilachna varivestis, Muls.), reared on Tendergreen bean plants at a temperature of 80±5° F. and 50±5 percent relative humidity, were the test insects.
The test compounds were formulated by diluting the stock suspension with water to give a suspension containing 500 parts of test compound per million parts of final formulation. Potted Tendergreen bean plants of standard height and age were placed on a revolving turntable and sprayed with 100-110 milliliters of test compound formulation by use of a DeVilbiss spray gun set at 10 psig air pressure. The application, which lasted 25 seconds, was sufficient to wet plants to run-off. As a control, 100-110 milliliters of a water-acetone-emulsifier solution containing no test compound were also sprayed on infested plants. When dry, the paired leaves were separated and each was placed in a 9 centimeter Petri dish lined with moistened filter paper. Five randomly selected larvae were introduced into each dish, and the dishes were closed. The closed dishes were labeled and held at a temperature of 80±5° F. for three days. Although the larvae could easily consume the leaf within 24 to 48 hours, no more food was added. Larvae which were unable to move the length of the body, even upon stimulation, were considered dead.
as §2

Assay [4] deals with root-knot nematode (Meloidogyne incognita var. acrita). In words: Nematode Test. The arrangement: key: 1: severe galling; equal to untreated control; 2: moderate galling; 3: light galling; 4: very light galling; 5: no galling. The note with it: 10 ml of 500 ppm formulation per jar (approx. 180 cc soil), cucumber indicator crop, approx. three weeks. On the procedure:
as §1
Infective migratory larvae of the root-knot nematode, (Meloidogyne incognita var. acrita) were reared in the greenhouse on roots of Rutgers variety tomato plant. Infected tomato plants were removed from the culture and the roots were chopped very finely. A small amount of inoculum from the roots was added to pint Mason jars containing approximately 180 cc of soil. The jars containing the inoculum and soil were capped and incubated for one week at room temperature. During this period eggs of the nematode hatched and the larvae forms migrated into the soil.
The test compounds were formulated by diluting the stock suspension with water to give a suspension containing 500 parts of test compound per million parts of final formulation. 10 milliliters of the test formulation was added to each of two jars for each dosage treated. As a control 10 milliliters of a water-acetone-emulsifier solution containing no test compound was also added to jars containing nematode larvae. The jars were capped and the contents thoroughly mixed on a kale mill for five minutes. The jars remained capped at room temperature for a period of 48 hours and the contents were then transferred to 3 inch pots. Subsequently, the pots were seeded to cucumber as an indicator crop and placed in the green house where they were cared for in the normal fashion for growing potted cucumber for approximately three weeks. These cucumber plants were then removed from the pots, the soil washed from the roots and the amount of galling visually rated.
The nematocidal toxicity has the following ratings;

In assay [5] the test system is two-spotted mite (Tetranychus urticae Koch). In words: Mite Foliage Spray Test. The note with it: 500 ppm, six days. The arrangement: key: A: excellent control; B: partial control; C: no control. On the procedure:
as §1
Adults and nymphal stages of the two-spotted mite (Tetranychus urticae Koch), reared on Tendergreen bean plants at 80±5 percent relative humidity, were the test organisms. Infested leaves from a stock culture were placed on the primary leaves of two bean plants six to eight inches in height, growing in a two-and-a-half inch clay pot. 150-200 Mites, a sufficient number for testing, transferred from the excised leaves to the fresh plants in a period of twenty four hours. Following the twenty four hour transfer period, the excised leaves were removed from the infested plants. The test compounds were formulated by diluting the stock suspension with water to give a suspension containing 500 parts of test compound per million parts of final formulation. The potted plants (one pot per compound) were placed on a revolving turntable and sprayed with 100-110 milliliters of test compound formulation by use of a DeVilbiss spray gun set at 40 psig. air pressure. This application, which lasted 25 seconds, was sufficient to wet the plants to run-off. As a control, 100-110 milliliters of a water solution containing acetone and emulsifier in the same concentrations as the test compound formulation, but containing no test compound, were also sprayed on infested plants. The sprayed plants were held at 80±5 percent relative humidity for six days, after which a mortality count of motile forms was made. Microscopic examination for motile forms was made on the leaves of the test plants. Any individual which was capable of locomotion upon prodding was considered living.
as §2

Assay [6] deals with house flies (Musca domestica, L.). In words: Fly Bait Test. The arrangement: key: A: excellent control; B: partial control; C: no control. The note with it: 500 ppm in sugar solution, twenty four hours. The method, then:
as §1
Four to six day old adult house flies (Musca domestica, L.) reared according to the specifications of the Chemical Specialities Manufacturing Association (Blue Book, McNair-Dorland Co., N.Y. 1954; pages 243-244, 261) under controlled conditions of 80±5° F. and 50±5 percent relative humidity, were the test insects. The flies were immobilized by anesthetizing with carbon dioxide and twenty five immobilized individuals,males and females, were transferred to a cage consisting of a standard food strainer about five inches in diameter which was inverted over a wrapping-paper-covered surface. The test compounds were formulated by diluting the stock suspension with a 10 percent (by weight) sugar solution to give a suspension containing 500 parts of test compound per million parts of final formulation, by weight. Ten milliliters of the test formulation were added to a souffle cup containing a one-inch square of an absorbent cotton pad. This bait cup was introduced and centered on the blotting paper under the food strainer prior to admitting the anesthetized flies. The caged flies were allowed to feed on the bait for twenty four hours, at a temperature of 80±5° F. and the relative humidity of 50±5 percent.
as §2

For `CC(=NOC(=O)N(C)SSN(C)C(=O)ON=C(C)[S+](C)[O-])[S+](C)[O-]` (stereo not shown) [N,N'--Bis-[1-Methylsulfinylacetaldehyde O--(N--methylcarbamoyl)oxime] disulfide], the “Bean Aphid control rating” value in assay [1] is recorded as “C”. In addition, the “Southern Armyworm control rating” value in assay [2] was “B”. Also, the “Mexican Bean Beetle control rating” value in assay [3] is reported as “A”. Moreover, in assay [4], the “Root-Knot Nematode galling rating” value turned out to be 1. For the same compound, in assay [5], the “2-Spotted Mite control rating” value is recorded as “C”. Besides, in assay [6], the House-Fly control rating result is reported as “A”.
For `CN=C1SC(=NOC(=O)N(C)SSN(C)C(=O)ON=C2SC(=NC)SC2(C)C)C(C)(C)S1` [N,N'--Bis-[2-Methylimino-4,4-dimethyl-5-(O--(N--methyl-carbamoyl)oximino-1,3-dithiolane]disulfide], the “Bean Aphid control rating” value in assay [1] is reported as “A”. Moreover, the “Southern Armyworm control rating” value in assay [2] was “A”. In addition, in assay [3], the “Mexican Bean Beetle control rating” value is given as “A”. Besides, the “Root-Knot Nematode galling rating” value in assay [4] turned out to be 4. In assay [5], the “2-Spotted Mite control rating” value was “B”. Besides, in assay [6], the House-Fly control rating result is listed as “A”.
For `CC(C)N1C(=O)C(C)(C)SC1=NOC(=O)N(C)SSN(C)C(=O)ON=C1SC(C)(C)C(=O)N1C(C)C` [N,N'--Bis-[3-Isopropyl-5,5-dimethyl-2-(O--(N--methylcarbamoyl)oximino)-1,3-thiazolidin-4-one] disulfide], the “Bean Aphid control rating” value in assay [1] is given as “A”. Further, the “Southern Armyworm control rating” value in assay [2] is “B”. Besides, the “Mexican Bean Beetle control rating” value in assay [3] is recorded as “A”. For the same compound, the “2-Spotted Mite control rating” value in assay [5] is given as “C”. Further, the House-Fly control rating result in assay [6] is reported as “C”.
In the case of `CC(=NOC(=O)N(C)SSN(C)C(=O)ON=C(C)SC(C)C)SC(C)C` [N,N'-Bis-[1-Isopropylthioacetaldehyde O-(N-methylcarbamoyl)oxime]disulfide], in assay [1], the “Bean Aphid control rating” value is reported as “A”. Further, in assay [2], the “Southern Armyworm control rating” value is “A”. Further, the “Mexican Bean Beetle control rating” value in assay [3] was “A”. Besides, the “Root-Knot Nematode galling rating” value in assay [4] was determined as 4. Besides, in assay [5], the “2-Spotted Mite control rating” value is listed as “A”. Further, in assay [6], the House-Fly control rating entry was “A”.
As for `CN(SSN(C)C(=O)ON=CC(C)(C)S(C)(=O)=O)C(=O)ON=CC(C)(C)S(C)(=O)=O` [N,N'-Bis-[2-Methylsulfonyl-2-methylpropionaldehyde O-(N-methylcarbamoyl)oxime]disulfide], in assay [1], the “Bean Aphid control rating” value is on record as “C”. For the same compound, in assay [2], the “Southern Armyworm control rating” value is given as “C”. Besides, the “Mexican Bean Beetle control rating” value in assay [3] is recorded as “C”. For the same compound, in assay [4], the “Root-Knot Nematode galling rating” value is 4. Besides, in assay [5], the “2-Spotted Mite control rating” value is listed as “B”. The House-Fly control rating entry in assay [6] is given as “A”.
As to `CN(SSN(C)C(=O)ON=C1SCCS1)C(=O)ON=C1SCCS1` [N,N'-bis-[2-(O-(N-Methylcarbamoyl)oximino)-1,3-dithiolane]disulfide], the “Bean Aphid control rating” value in assay [1] is listed as “A”. Also, the “Southern Armyworm control rating” value in assay [2] was “A”. Further, the “Mexican Bean Beetle control rating” value in assay [3] is “A”. The “Root-Knot Nematode galling rating” value in assay [4] is listed as 5. The “2-Spotted Mite control rating” value in assay [5] was “C”. Further, in assay [6], the House-Fly control rating result is recorded as “A”.
For `CN(SSN(C)C(=O)ON=CC(C)(C)C#N)C(=O)ON=CC(C)(C)C#N` [N,N'-bis-[2-Cyano-2-methylpropionaldehyde O-(N-methylcarbamoyl)oxime]disulfide], the “Bean Aphid control rating” value in assay [1] is listed as “A”. For the same compound, the “Southern Armyworm control rating” value in assay [2] is listed as “A”. The “Mexican Bean Beetle control rating” value in assay [3] is given as “A”. The “Root-Knot Nematode galling rating” value in assay [4] was found to be 4. Moreover, the “2-Spotted Mite control rating” value in assay [5] is “A”. The House-Fly control rating result in assay [6] is given as “A”.
Consider `CN1CCSC(=NOC(=O)N(C)SSN(C)C(=O)ON=C2SCCN(C)C2=O)C1=O` [N,N'-bis-[4-Methyl-2-(O-(N-methylcarbamoyl)oximino)tetrahydro-1,4-thiazin-3-one]disulfide], for which the “Bean Aphid control rating” value in assay [1] is “A”. Further, in assay [2], the “Southern Armyworm control rating” value was “A”. Also, the “Mexican Bean Beetle control rating” value in assay [3] is “A”. Further, the “2-Spotted Mite control rating” value in assay [5] is “A”. In addition, in assay [6], the House-Fly control rating result was “A”.
